Results: patent publication US6642263B2, “Modulators of Rho C activity” (Iconix Pharmaceuticals Inc., priority 2001, dated 2003)

Molecular target: T1, RhoC (Homo sapiens, UniProt P08134)
T1 construct: cDNAs corresponding to the complete open reading frame of RhoC were PCR amplified; expressed in transfected cells; host or cells: Saccharomyces cerevisiae strain EIS20-2B, pARC35B-derived expression plasmid integrated at LYS2, galactose-induced
Assay: Yeast growth restoration assay (RhoC expressed in yeast, surrogate genetic assay)
Format: cell-based, mammalian
Conditions: retested in dilutions from 0.5 μM to 128 μM; 30° C., 40-42 hrs, OD600
Protocol: Compounds of the invention are assayed for activity using any convenient biochemical or biological assay. For example, one can examine compounds for binding to recombinantly-expressed RhoC, assay compounds for their ability to reverse a RhoC-induced phenotype in a heterologous cell (see e.g., WO99/24563, incorporated herein by reference), or using one or more of the experimental protocols described in the references cited herein. […] Compounds were also examined for inhibition of stress fibers, by stimulating NIH 3T3 cells with 10 μM LPA in DMEM+0.2% FBS in the presence of test compounds for 4 hours.
(A) cDNAs corresponding to the complete open reading frame of RhoC were PCR amplified from pooled total cDNAs initially synthesized from placental, fetal brain, and fetal liver poly(A)^+ mRNAs (Clontech Laboratories, Inc.). […]
After PCR, approximately 200 ng of amplified cDNA was cotransformed with approximately 100 ng of vector into yeast and transformants were selected for leucine prototrophy. […] Plasmids from at least three independent transformants were subsequently rescued into the E. coli strain DH5alpha via electroporation, and further characterized by restriction enzyme analysis and DNA sequencing of the RhoC open reading frame. […]

T1 sequence (P08134 whole entry): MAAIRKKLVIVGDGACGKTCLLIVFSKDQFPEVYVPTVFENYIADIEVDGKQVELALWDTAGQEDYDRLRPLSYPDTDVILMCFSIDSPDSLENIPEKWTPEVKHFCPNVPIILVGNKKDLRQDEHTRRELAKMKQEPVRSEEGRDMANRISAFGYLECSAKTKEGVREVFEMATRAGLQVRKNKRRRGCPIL

Structure (SMILES): Cc1ccc(NS(=O)(=O)CSc2nc3ccccc3s2)cc1 [2-(4-methylphenylsulfamyl)methylthio-benzo[d]thiazole]
- potency / activity (growth restoration of RhoC-expressing yeast): only weak activity
